Measured values as given in ChEMBL document CHEMBL1201862, “PubChem BioAssay data set” (2004).
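The compound was tested at five concentrations on cells cultured in 96-well plates, with a 48-hour exposure period. The concentration for 50% growth inhibition is given as GI50.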 Active and inactive are the calls of the source. Rule as the data show it: active = GI50 up to about 1.1 µM and inactive = higher.

Key:
Assay in all cases: NCI anticancer screen, dose series, 48 h
[1] = system: A498
[2] = system: ACHN
[3] = system: CCRF-CEM
[4] = system: DMS-114
[5] = system: DMS-273
[6] = system: EKVX
[7] = system: HCT-116
[8] = system: HL-60
[9] = system: HOP-62
[10] = system: HOP-92
[11] = system: HT-29
[12] = system: IGROV-1
[13] = system: K562
[14] = system: KM-20L2
[15] = system: KM12
[16] = system: M14
[17] = system: M19-MEL
[18] = system: MOLT-4
[19] = system: NCI-H23
[20] = system: NCI-H460
[21] = system: NCI-H522
[22] = system: OVCAR-5
[23] = system: OVCAR-8
[24] = system: RXF 393
[25] = system: SF-295
[26] = system: SK-MEL-28
[27] = system: SK-OV-3
[28] = system: SNB-19
[29] = system: SNB-78
[30] = system: SR
[31] = system: TK-10
[32] = system: U-251
[33] = system: UACC-257
[34] = system: UACC-62
[35] = system: UO-31
[36] = system: 786-0
[37] = system: A549
[38] = system: BT-549
[39] = system: CAKI-1
[40] = system: COLO 205
[41] = system: DU-145
[42] = system: HCC 2998
[43] = system: HCT-15
[44] = system: Hs-578T
[45] = system: LOX IMVI
[46] = system: MCF7
[47] = system: MDA-MB-231
[48] = system: MDA-MB-435
[49] = system: MDA-N
[50] = system: Malme-3M
[51] = system: NCI-H226
[52] = system: NCI/ADR-RES
[53] = system: OVCAR-3
[54] = system: OVCAR-4
[55] = system: PC-3
[56] = system: RPMI-8226
[57] = system: SF-268
[58] = system: SF-539
[59] = system: SK-MEL-2
[60] = system: SK-MEL-5
[61] = system: SN12C
[62] = system: SNB-75
[63] = system: SW-620
[64] = system: T47D

CCCC(=O)OC1C(C2COC(C)(C)O2)OC2OC(C)(C)OC21 (stereo not drawn)
GI50 [1]: > 100 µM (inactive) | GI50 [2]: > 100 µM (inactive) | GI50 [3]: > 100 µM (inactive) | GI50 [4]: > 100 µM (inactive) | GI50 [5]: > 100 µM (inactive) | GI50 [6]: > 100 µM (inactive) | GI50 [7]: > 100 µM (inactive) | GI50 [8]: > 100 µM (inactive) | GI50 [9]: > 100 µM (inactive) | GI50 [10]: > 100 µM (inactive) | GI50 [11]: > 100 µM (inactive) | GI50 [12]: > 100 µM (inactive) | GI50 [13]: > 100 µM (inactive) | GI50 [14]: > 100 µM (inactive) | GI50 [15]: > 100 µM (inactive) | GI50 [16]: > 100 µM (inactive) | GI50 [17]: > 100 µM (inactive) | GI50 [18]: > 100 µM (inactive) | GI50 [19]: > 100 µM (inactive) | GI50 [20]: > 100 µM (inactive) | GI50 [21]: > 100 µM (inactive) | GI50 [22]: > 100 µM (inactive) | GI50 [23]: > 100 µM (inactive) | GI50 [24]: > 100 µM (inactive) | GI50 [25]: > 100 µM (inactive) | GI50 [26]: > 100 µM (inactive) | GI50 [27]: > 100 µM (inactive) | GI50 [28]: > 100 µM (inactive) | GI50 [29]: > 100 µM (inactive) | GI50 [30]: > 100 µM (inactive) | GI50 [31]: > 100 µM (inactive) | GI50 [32]: > 100 µM (inactive) | GI50 [33]: > 100 µM (inactive) | GI50 [34]: > 100 µM (inactive) | GI50 [35]: > 100 µM (inactive)

C[n+]1c(-c2ccc(/C=N/NC(=O)c3ccc(C(=O)N/N=C/c4ccc(-c5cn6ccccc6[n+]5C)cc4)cc3)cc2)cn2ccccc21
GI50 [36]: 13.9 µM (inactive) | GI50 [1]: 29.2 µM (inactive) | GI50 [37]: > 100 µM (inactive) | GI50 [2]: > 73.3 µM (inactive) | GI50 [38]: > 100 µM (inactive) | GI50 [39]: > 72.9 µM (inactive) | GI50 [3]: > 34.3 µM (inactive) | GI50 [40]: > 100 µM (inactive) | GI50 [41]: > 100 µM (inactive) | GI50 [6]: > 100 µM (inactive) | GI50 [42]: > 100 µM (inactive) | GI50 [7]: > 100 µM (inactive) | GI50 [43]: > 100 µM | GI50 [8]: > 100 µM (inactive) | GI50 [9]: > 100 µM (inactive) | GI50 [10]: > 100 µM (inactive) | GI50 [11]: > 100 µM (inactive) | GI50 [44]: > 100 µM (inactive) | GI50 [12]: > 100 µM (inactive) | GI50 [13]: > 100 µM (inactive) | GI50 [15]: > 100 µM (inactive) | GI50 [45]: > 100 µM (inactive) | GI50 [16]: 98.6 µM (inactive) | GI50 [46]: > 100 µM (inactive) | GI50 [47]: > 74.3 µM (inactive) | GI50 [48]: > 75.7 µM (inactive) | GI50 [49]: > 70 µM (inactive) | GI50 [18]: > 100 µM (inactive) | GI50 [50]: > 54.6 µM (inactive) | GI50 [51]: > 100 µM (inactive) | GI50 [19]: > 100 µM (inactive) | GI50 [20]: > 100 µM (inactive) | GI50 [21]: > 100 µM (inactive) | GI50 [52]: > 100 µM (inactive) | GI50 [53]: > 100 µM (inactive) | GI50 [54]: > 100 µM (inactive) | GI50 [22]: > 100 µM (inactive) | GI50 [23]: > 100 µM (inactive) | GI50 [55]: > 100 µM (inactive) | GI50 [56]: > 100 µM (inactive) | GI50 [24]: > 61.9 µM (inactive) | GI50 [57]: > 100 µM (inactive) | GI50 [25]: > 100 µM (inactive) | GI50 [58]: > 84.9 µM (inactive) | GI50 [26]: > 100 µM (inactive) | GI50 [59]: > 100 µM (inactive) | GI50 [60]: > 67.9 µM (inactive) | GI50 [27]: > 100 µM (inactive) | GI50 [61]: > 100 µM (inactive) | GI50 [28]: > 100 µM (inactive) | GI50 [62]: > 100 µM (inactive) | GI50 [30]: > 100 µM (inactive) | GI50 [63]: > 100 µM (inactive) | GI50 [64]: > 100 µM (inactive) | GI50 [31]: > 83.4 µM (inactive) | GI50 [32]: > 100 µM (inactive) | GI50 [33]: > 63.7 µM (inactive) | GI50 [34]: > 81.8 µM (inactive) | GI50 [35]: > 59.8 µM (inactive)

C=C1C(=O)OC2C1CCC(=C)C1CC(O)C(=C)C12 (stereo not drawn)
GI50 [36]: 5.5 µM (inactive) | GI50 [1]: 20 µM (inactive) | GI50 [37]: 23.8 µM (inactive) | GI50 [2]: 3.18 µM (inactive) | GI50 [38]: 15.3 µM (inactive) | GI50 [39]: 4.28 µM (inactive) | GI50 [3]: 2.21 µM (inactive) | GI50 [40]: 2.55 µM (inactive) | GI50 [41]: 15 µM (inactive) | GI50 [6]: 7.16 µM (inactive) | GI50 [42]: 14.3 µM (inactive) | GI50 [7]: 12.7 µM (inactive) | GI50 [43]: 10.8 µM | GI50 [8]: 1.82 µM (inactive) | GI50 [9]: 21.2 µM (inactive) | GI50 [10]: 3.21 µM (inactive) | GI50 [11]: 5.57 µM (inactive) | GI50 [44]: 36.9 µM (inactive) | GI50 [12]: 14 µM (inactive) | GI50 [13]: 5.09 µM (inactive) | GI50 [15]: 13.7 µM (inactive) | GI50 [45]: 7.52 µM (inactive) | GI50 [16]: 17.5 µM (inactive) | GI50 [46]: 7.43 µM (inactive) | GI50 [47]: 16.3 µM (inactive) | GI50 [48]: 19.5 µM (inactive) | GI50 [49]: 11 µM (inactive) | GI50 [18]: 8.38 µM (inactive) | GI50 [50]: 14.3 µM (inactive) | GI50 [51]: 27.1 µM (inactive) | GI50 [19]: 18.7 µM (inactive) | GI50 [20]: 18 µM (inactive) | GI50 [21]: 2.58 µM (inactive) | GI50 [52]: 24 µM (inactive) | GI50 [53]: 13.3 µM (inactive) | GI50 [54]: 16.2 µM (inactive) | GI50 [22]: 11.5 µM (inactive) | GI50 [23]: 24.9 µM (inactive) | GI50 [55]: 13.4 µM (inactive) | GI50 [56]: 5.78 µM (inactive) | GI50 [24]: 13.1 µM (inactive) | GI50 [57]: 15.4 µM (inactive) | GI50 [25]: 38.5 µM (inactive) | GI50 [58]: 16.9 µM (inactive) | GI50 [26]: 14.4 µM (inactive) | GI50 [59]: 14.3 µM (inactive) | GI50 [60]: 14.3 µM (inactive) | GI50 [27]: 33.8 µM (inactive) | GI50 [61]: 16.2 µM (inactive) | GI50 [28]: 23.8 µM (inactive) | GI50 [62]: 19.7 µM (inactive) | GI50 [30]: 3.22 µM (inactive) | GI50 [63]: 16 µM (inactive) | GI50 [64]: 20.7 µM (inactive) | GI50 [31]: 8.02 µM (inactive) | GI50 [32]: 23.3 µM (inactive) | GI50 [33]: 12.9 µM (inactive) | GI50 [34]: 13.5 µM (inactive) | GI50 [35]: 15.3 µM (inactive)
